For test [1], the target named is T1, human orexin-1 receptor (hOX1R) (Homo sapiens, UniProt O43613).
T1 construct: expressed in transfected cells; host or cells: Chinese hamster ovary (CHO) cells
T1 sequence (O43613 1-425): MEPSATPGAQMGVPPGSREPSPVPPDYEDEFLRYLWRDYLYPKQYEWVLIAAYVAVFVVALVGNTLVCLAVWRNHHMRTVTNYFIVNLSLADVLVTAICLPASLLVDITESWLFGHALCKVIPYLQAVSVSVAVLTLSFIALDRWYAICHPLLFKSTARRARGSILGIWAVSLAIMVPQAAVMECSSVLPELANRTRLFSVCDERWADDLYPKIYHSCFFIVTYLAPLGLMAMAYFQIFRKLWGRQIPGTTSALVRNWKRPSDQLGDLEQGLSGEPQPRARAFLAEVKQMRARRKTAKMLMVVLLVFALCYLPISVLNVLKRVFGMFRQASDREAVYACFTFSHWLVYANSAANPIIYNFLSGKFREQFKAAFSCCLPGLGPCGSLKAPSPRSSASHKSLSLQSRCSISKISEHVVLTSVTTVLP
Nature of the test: Orexin antagonistic activity assay (intracellular Ca2+, FDSS) in CHO cells expressing hOX1R. It is filed as cell-based. The conditions noted are these: CHO cells expressing hOX1R; ligand peptide 300 pM; Fluo-3 maximum fluorescence intensity; read-out: IC50 value OX1. How it is done:
(§1) The antagonistic activity of each test compound against human orexin-1 receptor (hOX1R) and orexin-2 receptor (hOX2R) was assayed by a modification of a method described in the literature (Toshikatsu Okumura et al., Biochemical and Biophysical Research Communications 280, 976-981, 2001). Chinese hamster ovary (CHO) cells forced to express hOX1R or hOX2R were inoculated at a density of 20,000 cells/well to a 96-well Black clear bottom plate (Nunc) and cultured at 37° C. for 16 hours under 5% CO2 conditions in a Ham's F-12 medium containing 0.1 mM MEM nonessential amino acids, 0.5 mg/ml G418, and 10% fetal bovine serum (all from Invitrogen Corp.). After removal of the medium, 100 μL of a buffer solution for assay (25 mM HEPES (Dojindo Laboratories), Hanks' balanced salt solution (Invitrogen Corp.), 0.1% bovine serum albumin, 2.5 mM probenecid, and 200 μg/ml Amaranth (all from Sigma-Aldrich Corp.), pH 7.4) containing 0.5 μM Fluo-3 AM ester (Dojindo Laboratories) was added to the cells, which were then incubated at 37° C. for 60 minutes under 5% CO2 conditions. After removal of the buffer solution for assay containing Fluo-3 AM ester, each test compound was dissolved at a concentration of 10 mM in dimethyl sulfoxide and diluted with a buffer solution for assay. Then, 150 μL of the solution was added to the cells, which were then incubated for 30 minutes.
(§2) A ligand peptide (Pyr-[…]NH2; Peptide Institute, Inc.) derived from human orexin-A by the substitution of two amino acids was diluted with a buffer solution for assay to final concentrations of 300 pM for hOX1R and 3 nM for hOX2R. Reaction was initiated by the addition of 50 μL of this ligand solution. The fluorescence intensity of the reaction was measured in each well every second for 3 minutes using Functional Drug Screening System (FDSS; manufactured by Hamamatsu Photonics K.K.), and the maximum fluorescence intensity was used as an index for intracellular Ca^2+ concentration to determine antagonistic activity. The antagonistic activity of the test compound was calculated with fluorescence intensity from a well supplemented with only a diluting buffer solution as 100% and fluorescence intensity from a well supplemented with a buffer solution free from the ligand and the compound as 0%. The 50% inhibitory concentration (IC50 value) was determined on the basis of fluorescence intensity derived from the test compound added at varying concentrations.

Test [2] deals with T2, orexin-2 receptor (hOX2R) (Homo sapiens, UniProt O43614).
T2 construct: expressed in transfected cells; host or cells: Chinese hamster ovary (CHO) cells
T2 sequence (O43614 1-444): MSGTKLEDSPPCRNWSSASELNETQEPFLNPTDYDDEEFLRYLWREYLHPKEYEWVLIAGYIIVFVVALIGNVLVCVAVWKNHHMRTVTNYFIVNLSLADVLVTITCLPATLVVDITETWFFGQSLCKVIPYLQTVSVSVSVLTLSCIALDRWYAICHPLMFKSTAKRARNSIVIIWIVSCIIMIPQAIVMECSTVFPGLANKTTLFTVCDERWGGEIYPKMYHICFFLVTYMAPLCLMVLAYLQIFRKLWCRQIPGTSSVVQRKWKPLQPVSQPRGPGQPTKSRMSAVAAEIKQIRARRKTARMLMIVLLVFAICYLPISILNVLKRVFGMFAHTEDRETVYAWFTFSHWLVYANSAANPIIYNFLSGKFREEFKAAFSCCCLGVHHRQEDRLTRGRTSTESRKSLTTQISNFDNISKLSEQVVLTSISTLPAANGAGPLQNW
The test can be described thus: Orexin antagonistic activity assay (intracellular Ca2+, FDSS) in CHO cells expressing hOX2R. It is filed as cell-based. Conditions: CHO cells expressing hOX2R; ligand peptide 3 nM; Fluo-3 maximum fluorescence intensity; read-out: IC50 value OX2. Here is the method:
as §1, §2

Usually IC50 stands for the point on the concentration scale where inhibition reaches its midpoint. On to `C[C@@H]1CC[C@@H](c2nc3ccc(Cl)cc3o2)CN1C(=O)c1ccc(F)cc1-n1nccn1` [Example 47, [(2R,5R)-5-(6-Chloro-1,3-benzoxazol-2-yl)-2-methylpiperidin-1-yl][4-fluoro-2-(2H-1,2,3-triazol-2-yl)phenyl]methanone], for which the IC50 in test [1] is 58.6 nM; in test [2], 16.6 nM.

As to `Cc1ccc(-n2nccn2)c(C(=O)N2C[C@H](c3nc4cc(F)cc(F)c4o3)CC[C@H]2C)c1` [Example 62, [(2R,5R)-5-(5,7-Difluoro-1,3-benzoxazol-2-yl)-2-methylpiperidin-1-yl][5-methyl-2-(2H-1,2,3-triazol-2-yl)phenyl]methanone], the IC50 in test [1] amounted to 24.8 nM; in test [2], 4.3 nM.

With `Cc1ccc(-c2ncccn2)c(C(=O)N2C[C@H](c3nc4cc(Cl)ccc4o3)CC[C@H]2C)c1` (single isomer, unassigned) [Example 5, [(2R*,5R*)-5-(5-Chloro-1,3-benzoxazol-2-yl)-2-methylpiperidin-1-yl][5-methyl-2-(pyrimidin-2-yl)phenyl]methanone], the IC50 was 3.1 nM in test [1] and 4.3 nM in test [2].

Take `C[C@@H]1CC[C@@H](c2nc3cc(Cl)ccc3o2)CN1C(=O)c1cc(Br)ccc1-n1nccn1` [Example 22, [5-Bromo-2-(2H-1,2,3-triazol-2-yl)phenyyl][(2R,5R)-5-(5-chloro-1,3-benzoxazol-2-yl)-2-methylpiperidin-1-yl]methanone]: the figures for the IC50 in test [1] and in test [2] were 31.9 nM and 7.8 nM, respectively.

Consider `Cc1ccc(-c2ncccn2)c(C(=O)N2C[C@H](c3nc4c(F)cc(F)cc4o3)CC[C@H]2C)c1` [Example 61, [(2R,5R)-5-(4,6-Difluoro-1,3-benzoxazol-2-yl)-2-methylpiperidin-1-yl][5-methyl-2-(pyrimidin-2-yl)phenyl]methanone], for which the IC50 came to 81.3 nM in test [1] and 44.2 nM in test [2].

For `C[C@@H]1CC[C@@H](c2nc3cc(Cl)ccc3o2)CN1C(=O)c1cc(C(F)(F)F)ccc1-n1nccn1` [Example 20, [(2R,5R)-5-(5-Chloro-1,3-benzoxazol-2-yl)-2-methylpiperidin-1-yl][2-(2H-1,2,3-triazol-2-yl)-5-(trifluoromethyl)phenyl]methanone], the figures for the IC50 in test [1] and in test [2] were 108 nM and 55.7 nM, respectively.

For `C[C@@H]1CC[C@@H](c2nc3cc(F)ccc3o2)CN1C(=O)c1ccccc1-n1nccn1` [Example 28, [(2R,5R)-5-(5-Fluoro-1,3-benzoxazol-2-yl)-2-methylpiperidin-1-yl][2-(2H-1,2,3-triazol-2-yl)phenyl]methanone], the figures for the IC50 in test [1] and in test [2] were 50.4 nM and 1.5 nM, respectively.

`C[C@@H]1CC[C@@H](c2nc3cc(Cl)ccc3o2)CN1C(=O)c1cc(F)ccc1-n1nccn1` (single isomer, unassigned) [Example 2, [(2R*,5R*)-5-(5-Chloro-1,3-benzoxazol-2-yl)-2-methylpiperidin-1-yl][5-fluoro-2-(2H-1,2,3-triazol-2-yl)phenyl]methanone]: the values for the IC50 in test [1] and in test [2] were 19.8 nM and 8.7 nM, respectively.

As for `C[C@@H]1CC[C@@H](c2nc3cc(Cl)ccc3o2)CN1C(=O)c1cc(F)ccc1-c1ncc(F)cn1` [Example 23, [(2R,5R)-5-(5-Chloro-1,3-benzoxazol-2-yl)-2-methylpiperidin-1-yl][5-fluoro-2-(5-fluoropyrimidin-2-yl)phenyl]methanone], the IC50 in test [1] came to 168 nM; in test [2], 22.5 nM.

Consider `Cc1ccc(-c2ncccn2)c(C(=O)N2C[C@H](c3nc4cc(C(F)(F)F)ccc4o3)CC[C@H]2C)c1` [Example 37, [5-Methyl-2-(pyrimidin-2-yl)phenyl]{(2R,5R)-2-methyl-5-[5-(trifluoromethyl)-1,3-benzoxazol-2-yl]piperidin-1-yl}methanone], for which the IC50 is 36.5 nM in test [1] and 9.3 nM in test [2].

Turning to `C[C@@H]1CC[C@@H](c2nc3cc(F)ccc3o2)CN1C(=O)c1cc(Cl)ccc1-c1ncccn1` [Example 33, [5-Chloro-2-(pyrimidin-2-yl)phenyl][(2R,5R)-5-(5-fluoro-1,3-benzoxazol-2-yl)-2-methylpiperidin-1-yl]methanone], the 50% inhibitory concentration (IC50) in test [1] turned out to be 44.6 nM; in test [2], 9.2 nM.

With `Cc1ccc(-n2nccn2)c(C(=O)N2C[C@H](c3nc4cc(C#N)ccc4o3)CC[C@H]2C)c1` [Example 56, 2-[(3R,6R)-6-Methyl-1-[5-methyl-2-(2H-1,2,3-triazol-2-yl)benzoyl]piperidin-3-yl]-1,3-benzoxazole-5-carbonitrile], the IC50 was determined as 164 nM in test [1] and 10 nM in test [2].

With `C[C@@H]1CC[C@@H](c2nc3cc(F)c(F)cc3o2)CN1C(=O)c1ccc(F)cc1-n1nccn1` [Example 55, [(2R,5R)-5-(5,6-Difluoro-1,3-benzoxazol-2-yl)-2-methylpiperidin-1-yl][4-fluoro-2-(2H-1,2,3-triazol-2-yl)phenyl]methanone], the IC50 in test [1] stood at 207 nM; in test [2], 9.4 nM.

`C[C@@H]1CC[C@@H](c2nc3ccc(Cl)cc3o2)CN1C(=O)c1c(F)cccc1-n1nccn1` [Example 48, [(2R,5R)-5-(6-Chloro-1,3-benzoxazol-2-yl)-2-methylpiperidin-1-yl][2-fluoro-6-(2H-1,2,3-triazol-2-yl)phenyl]methanone]: the half-maximal inhibitory concentration (IC50) came out at 58.8 nM in test [1] and 12.4 nM in test [2].

For `Cc1ccc(-n2nccn2)c(C(=O)N2C[C@H](c3nc4cc(OC(F)(F)F)ccc4o3)CC[C@H]2C)n1` [Example 42, [6-Methyl-3-(2H-1,2,3-triazol-2-yl)pyridin-2-yl]{(2R,5R)-2-methyl-5-[5-(trifluoromethoxy)-1,3-benzoxazol-2-yl]piperidin-1-yl}methanone], the IC50 in test [1] was 1040 nM; in test [2] it was 919 nM.

As to `Cc1ccc(-c2ncccn2)c(C(=O)N2C[C@H](c3nc4c(Cl)cccc4o3)CC[C@H]2C)c1` [Example 69, [(2R,5R)-5-(4-Chloro-1,3-benzoxazol-2-yl)-2-methylpiperidin-1-yl][5-methyl-2-(pyrimidin-2-yl)phenyl]methanone], the IC50 in test [1] was 4.4 nM; in test [2], 5.5 nM.

With `C[C@@H]1CC[C@@H](c2nc3cc(Cl)ccc3o2)CN1C(=O)c1cc(C#N)ccc1-n1nccn1` [Example 21], the IC50 in test [1] was determined as 211 nM; in test [2] it was 155 nM.

Regarding `Cc1ccc(-c2ncccn2)c(C(=O)N2C[C@H](c3nc4ccc(Cl)cc4o3)CC[C@H]2C)c1` [Example 44, [(2R,5R)-5-(6-Chloro-1,3-benzoxazol-2-yl)-2-methylpiperidin-1-yl][5-methyl-2-(pyrimidin-2-yl)phenyl]methanone], the figures for the IC50 in test [1] and in test [2] were 9.1 nM and 23.1 nM, respectively.

For the molecule `Cc1ccc(-c2ncccn2)c(C(=O)N2CC(c3nc4cc(Cl)ccc4o3)CC[C@H]2C)n1` (single isomer, unassigned) [Example 4, [(2R*,5R*)-5-(5-Chloro-1,3-benzoxazol-2-yl)-2-methylpiperidin-1-yl][6-methyl-3-(pyrimidin-2-yl)pyridin-2-yl]methanone], the IC50 in test [1] amounted to 4.3 nM; in test [2], 17.2 nM.

The values above are taken from patent US20140228377A1, “METHYLPIPERIDINE DERIVATIVE” (TAISHO PHARMACEUTICAL CO., LTD., priority 2011, published 2014).
